The source made the active and inactive calls. The rule behind the calls is not given here.
Target: Bcl-2-like protein 1 (Homo sapiens) (UniProt Q07817)
Test: Bim-Bcl-XL interaction inhibitors, potency, dose response, biochemical, multiplexed, bead flow cytometry, human Bcl-XL (AID 1322); for inhibition: test concentration not given here
Conditions: Bead-based flow cytometry, Bim peptide-Bcl-XL binding, MCF; for inhibition: active compounds read high

Bcl-2-like protein 1 (Homo sapiens), sequence (Q07817 whole entry, looked up): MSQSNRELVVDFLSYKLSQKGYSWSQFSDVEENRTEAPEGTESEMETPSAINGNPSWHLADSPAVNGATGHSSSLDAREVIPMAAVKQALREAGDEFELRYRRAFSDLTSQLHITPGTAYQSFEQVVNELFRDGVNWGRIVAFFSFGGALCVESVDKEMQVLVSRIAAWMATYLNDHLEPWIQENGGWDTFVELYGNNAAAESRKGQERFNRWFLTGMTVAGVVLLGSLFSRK

Row | Structure (SMILES) | inhibition | also measured
1 | CN(C)/C=C/C(=O)c1ccc(C(F)(F)F)cc1F | inactive | 
2 | CCOc1ncccc1C(=O)OC(C)C(=O)Nc1ccc(CC)cc1 (stereo not given) |  | outcome: inactive
3 | Cn1c(=O)c(C(=O)COC(=O)c2cc(-c3ccco3)nc3ccccc23)c(N)n(Cc2ccccc2)c1=O | inactive | 
4 | COc1cc(CNc2ccc(N3CCCC3)cc2)cc(Cl)c1OC | inactive | 
5 | CC1(C(=O)N(CC(=O)NC2CCCC2)Cc2ccco2)CC(=O)N=C2C=CC=CN21 (stereo not given) | inactive | 
6 | Cc1cc[n+]2cc(-c3cccc([N+](=O)[O-])c3)c(-c3cccc([N+](=O)[O-])c3)cc2c1 |  | outcome: inactive
7 | CS(=O)(=O)NN1C(=O)c2ccccc2NC1c1cccs1 (stereo not given) | inactive | 
8 | CCc1cccc(CC)c1-n1c(-c2cccnc2)n[nH]c1=S | inactive | 
9 | CNC(=S)N(Cc1cccs1)Cc1cc2ccc(OC)cc2[nH]c1=O | inactive | 
10 | NC(=O)c1c(N)sc2c1CCCCC2 | inactive | 
11 | CNC(=O)c1sc(-c2ccccn2)nc1C | inactive | 
12 | N#Cc1cc(-c2ccccc2)nn1-c1ccccc1 | inactive | 
13 | COC(=O)CCC(=O)Nc1sc(Cc2ccccc2)c(C)c1C(N)=O | inactive | 
14 | CC(/C=C/C(=O)c1ccc(C)cc1)=C\c1ccccc1 | inactive | 
15 | CCOc1ccc(C2=Nn3c(nnc3-c3ccco3)SC2)cc1 | inactive | 
16 | OC(CNC1CCCCC1)COCCOc1ccc(Br)cc1 (stereo not given) | inactive | 
17 | CN1/C(=C\C(=O)Nc2ccc(Cl)cc2)C(C)(C)c2ccccc21 | inactive | 
18 | c1ccc(-c2nc(N3CCCCC3)nc3ccccc23)cc1 | inactive | 
19 | CC1CC2=C(NC(=S)NC2c2ccccc2F)/C(=C/c2ccccc2F)C1 (stereo not given) |  | outcome: inactive
20 | CC(C)c1ccc(C2CC(c3ccc(Br)cc3)=NN2C(N)=S)cc1 (stereo not given) |  | outcome: inactive
21 | CCOC(=O)c1c(NC(=O)c2ccccc2N(C)S(=O)(=O)c2ccccc2)sc2c1CCCC2 | inactive | 
22 | O=C(/C=C/c1c(F)cccc1Cl)Nc1ccncc1 | inactive | 
23 | COc1ccc(C(=O)Nc2ccc(NC(=O)c3cccs3)cc2)cc1Cl | inactive | 
24 | CCNCc1cc(Br)c(OCC(=O)Nc2ccccc2)c(OC)c1 | inactive | 
25 | O=C(CNC(=O)c1ccco1)NCC(=O)OCc1ccccc1Br | inactive | 
26 | O=C(c1cnccn1)N(Cc1cccs1)C1(C(=O)NC2CCCCC2)CCCCC1 |  | outcome: inactive
27 | CCOC(=O)C1CCN(C(=O)Nc2ccc3nc(-c4ccco4)c(-c4ccco4)nc3c2)CC1 | inactive | 

Row | Structure (SMILES) | inhibition | also measured
28 | Fc1ccc(C2=Nc3cccc4cccc(c34)N2)cc1 |  | outcome: inactive
29 | COc1ccc(NC(=O)c2sccc2SCc2cccc(C(F)(F)F)c2)cc1 | inactive | 
30 | COc1ccc(NC(=O)COc2ncnc3ccccc23)cc1S(=O)(=O)N1CCOCC1 | inactive | 
31 | CCOCCOc1nc2c(c(=O)n(C)c(=O)n2C)n1CCc1ccccc1 | inactive | 
32 | C=CS(=O)(=O)c1sc(Cl)c(N2CCOCC2)c1[N+](=O)[O-] |  | outcome: inactive
33 | COc1ccc2nc(NC(=O)c3ccc(-c4cccc([N+](=O)[O-])c4)o3)sc2c1 | inactive | 
34 | COc1cccc(/C=N/Nc2nn3cnnc3c3ccccc23)c1 |  | EC50: inactive
35 | O=C(/C=C/c1ccc(-c2ccccc2[N+](=O)[O-])o1)c1ccccc1 | inactive | 
36 | CCOC(=O)/C(=C\c1cccc(O)c1)c1nc2sc(C)c(C)c2c(=O)[nH]1 | inactive | 
37 | O=C(N/N=C/c1cccc([N+](=O)[O-])c1)c1cccs1 |  | outcome: inactive
38 | O=[N+]([O-])c1ccc(N2CCN(c3ccc(O)cc3)CC2)c(Cl)c1 | inactive | 
39 | O=C(NC1=C(Nc2ccc(Cl)cc2)C(=O)c2ccccc2C1=O)c1ccccc1 | inactive | 
40 | Cc1ccc(NC(=S)N2CCn3cccc3C2c2cccnc2)cc1 (stereo not given) |  | outcome: inactive
41 | Cc1ccc(C(=O)CCC(=O)Nc2ccc(Cl)c(S(=O)(=O)Nc3cccc(Cl)c3)c2)cc1 | inactive | 
42 | CCCc1nnc2n1N=C(c1ccc(-c3cc(Cl)ccc3Cl)o1)CS2 | inactive | 
43 | CCCCc1ccc(NC(=S)NCc2ccc(OC)cc2)cc1 |  | outcome: inactive
44 | CCC(=O)OCCNc1cc(Sc2nccn2C)c2nonc2c1[N+](=O)[O-] |  | outcome: inactive
45 | COCc1cc(CN2CCCC(CNC(=O)c3ccc(F)cc3)C2)ccc1OC (stereo not given) | inactive | 
46 | COc1cc(N=c2ssnc2Cl)cc(OC)c1 | inactive | 
47 | O=C1/C(=C\c2ccco2)NC(=S)N1c1ccccc1 | inactive | 
48 | COc1cccc(N2CC(C(=O)Nc3nnc(SCC(=O)c4ccccc4)s3)CC2=O)c1 (stereo not given) | inactive | 
49 | CCN1/C(=C\c2ccc3cc(C)ccc3[n+]2CC)Sc2cc(C)c(C)cc21 |  | outcome: inactive
50 | Cc1ccc(S(=O)(=O)N(C)CC(=O)N2CCc3ccccc32)cc1 | inactive | 
51 | CN(C)c1ccc(Nc2nc(-c3cccnc3)cs2)cc1 | inactive | 
52 | CN1CCN(c2ccccc2N)CC1 | inactive | 
53 | CCOC(=O)N1CCC(c2cc(=O)n(-c3ccccc3)[nH]2)CC1 |  | outcome: inactive
54 | COc1ccc(NC(=O)c2c(F)cccc2F)cc1S(=O)(=O)Nc1ccc(Br)cc1 | inactive | 

Row | Structure (SMILES) | inhibition | also measured
55 | COC(=O)CSc1nccc(-c2cccs2)n1 |  | outcome: inactive
56 | CCC(CC)C(=O)Nc1cccc(SC)c1 | inactive | 
57 | Cc1ccnc(NS(=O)(=O)c2ccc(NS(=O)(=O)c3cccs3)cc2)n1 | inactive | 
58 | Cc1ccc(S(=O)(=O)NC(=O)COc2ccccc2C)cc1 | inactive | 
59 | COC(=O)Cc1ccc(NC(=S)N2CCN(c3cccc(O)c3)CC2)cc1 | inactive | 
60 | Cc1ccc(SCCC(=O)Nc2ccc(Br)c(C)c2)cc1 | inactive | 
61 | O=[N+]([O-])c1ccc(N/N=C/c2ccc(O)c(O)c2O)c(S(=O)(=O)N2CCOCC2)c1 | inactive | 
62 | CC(=O)Nc1ccc(-n2cc(-c3ccccc3)[nH]c2=S)cc1 | inactive | 
63 | NC(=O)c1c(NC(=O)C2CCCO2)sc2c1CCCCC2 (stereo not given) | inactive | 
64 | O=C(CSc1ccc(-c2ccccc2)nn1)NCc1ccco1 | inactive | 
65 | CCOc1ccc(-n2cc(-c3ccc(OC)c(OC)c3)[nH]c2=S)cc1 |  | outcome: inactive
66 | COc1cc2[nH]c(=S)nc(NCCCOC(C)C)c2cc1OC | inactive | 
67 | N#CC(C#N)=C1C=CC=CN1/C(=C\c1ccco1)C(=O)c1ccccc1 | inactive | 
68 | CCOc1ccc(CNc2ccc(N3CCCC3)cc2)cc1 | inactive | 
69 | CC(=O)c1ccc2c(c1)C1C=CCC1C(c1ccncc1)N2 (stereo not given) | inactive | 
70 | O=C(NC1=C(NC2CCS(=O)(=O)C2)C(=O)c2ccccc2C1=O)c1ccccc1 (stereo not given) | inactive | 
71 | COC(=O)Cc1cc(=O)[nH]c(Nc2nc3ccccc3o2)n1 | inactive | 
72 | Cc1ccc(C)c(N2CCN(C(=S)Nc3ccc4nc(N5CCN(C)CC5)cc(C)c4c3)CC2)c1 | inactive | 
73 | Cc1ccc(C)c(NC(=O)C(=O)NCc2ccccn2)c1 |  | outcome: inactive
74 | COC(=O)CCC(=O)Nc1sc(C)c(C)c1C(N)=O | inactive | 
75 | CC(C(=O)Nc1ccc([N+](=O)[O-])cc1)N1CCN(C/C=C/c2ccccc2)CC1 (stereo not given) | inactive | 
76 | Cc1ccc(C)c(Oc2ncnc(N)c2[N+](=O)[O-])c1 | inactive | 
77 | Cc1cc(N2CCN(C)CC2)nc2ccc(NC(=S)N3CCN(c4cccc(Cl)c4)CC3)cc12 | inactive | 
78 | Oc1ccc(C=NCC2COc3ccccc3O2)cc1 (stereo not given) | inactive | 
79 | O=[N+]([O-])c1ccc(-c2cn(-c3ccc(Cl)cc3)c(=S)[nH]2)cc1 | inactive | 
80 | Cc1sc2nc(C(C)C)nc(SCC(=O)N3c4ccccc4CC3C)c2c1C (stereo not given) | inactive | 
81 | CCN(CC)c1ccc(NC(=O)c2ccccc2Br)cc1S(=O)(=O)Nc1ccccc1OC | inactive | 

Row | Structure (SMILES) | inhibition | also measured
82 | O=C(NCCN1CCOCC1)c1cc(Cl)ccc1[N+](=O)[O-] | inactive | 
83 | Cc1nnc(NCc2n[nH]c(=O)c3ccccc23)c2ccccc12 | inactive | 
84 | O=C(COC(=O)CCCN=C1NS(=O)(=O)c2ccccc21)NC(=O)NC1CCCC1 | inactive | 
85 | Cc1ccc(-c2nnc(Cc3ccc(Cl)cc3)o2)cc1 | inactive | 
86 | CC1(C)CC(=O)C(C=NCCN2CCN(CCc3ccccc3)CC2)=C(O)C1 | inactive | 
87 | Cn1cccc1CC(=O)N/N=C\c1ccccc1 |  | outcome: inactive
88 | O=C(Nc1ccc2nc(-c3ccco3)c(-c3ccco3)nc2c1)N1CCN(c2ccccn2)CC1 | inactive | 
89 | Clc1ccc2c(N/N=C/c3cccc(Br)c3)ccnc2c1 | inactive | 
90 | COc1ccc(N2C(=O)C(Cl)=C(Nc3c(C)n(C)n(-c4ccccc4)c3=O)C2=O)cc1 | inactive | 
91 | O=C(Nc1cccc(C(F)(F)F)c1)c1ccc2nc(-c3ccco3)c(-c3ccco3)nc2c1 | inactive | 
92 | CCOc1cc(S(=O)(=O)Nc2ccccn2)ccc1F | inactive | 
93 | CCN(CC)c1nc(N)nc(N(c2ccccc2)c2ccccc2)n1 | inactive | 
94 | O=C(CNC(=O)c1ccc(S(=O)(=O)N2CCCC2)cc1)N/N=C/c1ccc(Cl)cc1Cl |  | outcome: inactive
95 | C/C(=N\NC(=O)COc1ccc(C#N)cc1)c1ccccc1OC(F)F | inactive | 
96 | Cc1ccc(/C=C/C(=O)c2ccccc(=O)c2O)c(C)c1 | inactive | 
97 | COC(=O)c1c(C(=O)OC)c2cccc3cc(-c4ccccc4)c4ccc1c4n32 | inactive | 
98 | Cc1ccc(-c2cc(-c3ccc(F)cc3)nc(N)c2C#N)o1 | inactive | 
99 | C=CS(=O)c1sc(Cl)c(N2CCOCC2)c1[N+](=O)[O-] (stereo not given) |  | outcome: inactive
100 | Cc1cc(C)n(CC(=O)N/N=C/c2cccc([N+](=O)[O-])c2)n1 |  | outcome: inactive
101 | Cc1cc(-c2csc(N)n2)c(C)n1CCC(C)C | inactive | 
102 | Cc1ccc(Nc2nc(C)cs2)cc1 |  | outcome: inactive
103 | Cc1ccc2c(C)c(C(=O)Nc3nnc(C)s3)oc2c1 | inactive | 
104 | Cc1nn(-c2ccc(Cl)c(Cl)c2)c(C)c1C(=O)O |  | outcome: inactive
105 | COc1ccc2cc(CN(CCc3ccccc3)Cc3nnnn3CC3CCCO3)c(=O)[nH]c2c1 (stereo not given) | inactive | 

From PubChem BioAssay AID1322 (NMMLSC, 2008)
